From US7879870B2, “Treatment of inflammatory and ulcerative diseases of the bowel with opioid antagonists” (priority 2006, dated 2011)
Entries after “also recorded” stand apart in the source; their conditions may differ.

How the values were obtained:
STAT3 mRNA = assay: Distal colon RNA of DSS mice, real-time RT-PCR; format: in vivo, mouse
Text: (§1) Total RNA was extracted from the distal colon samples (using TRIZOL® available from Invitrogen Corp., Carlsbad, Calif.; TRIZOL® is a trademark of Molecular Research Center, Inc. of Cincinnati, Ohio) and subjected to microarray analysis using a 10K mouse microarray (MWG Biotech, High Point, N.C.) and a Packard Biosciences ScanArray 4000KL machine (Functional Genomics Core Facility of the Section of Research Resources, Penn State College of Medicine). To minimize the impact of variation among animals, RNA from individual mice was pooled within each treatment group. […] RNA from Normal+saline, DSS+6.3 μg/kg NTX, and DSS+350 μg/kg NTX were each tested versus DSS+saline. Data were analyzed with GenSpring 6 software (Agilent Technologies, Palo Alto, Calif.).
(§2) RNA (18S and 28S bands) was visualized using the Agilent 2100 Bioanalyzer (Agilent Technologies, Santa Clara, Calif.) and concentrations were adjusted. First strand cDNA was then produced from 1.0 μg of total RNA using random hexamer primers and the SuperScript III Reverse Transcription kit (Invitrogen). The concentration and quality of resulting cDNA was quantified and analyzed using the Agilent 2100 Bioanalyzer or spectroscopically with the NanoDrop ND-1000 (NanoDrop Technologies, Wilmington, Del.). Samples were standardized to 30 ng/μL and 60 ng of cDNA per sample was then used as a template for real-time PCR using a SYBR Green Master Mix (Qiagen, Valencia, Calif.). 18S rRNA primers (Eurogentec, San Diego, Calif.) and the following gene-specific primer sequences obtained from PrimerBank (pga.mgh.harvard.edu/primerbank) were used: beta-actin, 6671509a; IL-5, 6754336a; IL-6, 13642311a; IL-12, 6680395a; STAT3, 13277852a; STAT4, 6755670a; Muc2, 3452503a2; TFF3, 6755773a1; Palladin, 9828173a1; and TGF-beta BP, 7305243a1. To exclude the possibility of genomic DNA contamination, control reactions with no cDNA template were also performed for each gene-specific primer set. PCR amplification and analysis were performed with the Applied Biosystems Sequence Detection System 7300 using the Relative Quantification (ddCt). Amplification data for the genes of interest were normalized to 18S within each individual reaction. Triplicate reactions were performed and the resultant data from multiple runs were averaged.

STAT4 mRNA = assay: Distal colon RNA of DSS mice, real-time RT-PCR; format: in vivo, mouse
Text: as §1, §2

IL-6 mRNA = assay: Distal colon RNA of DSS mice, real-time RT-PCR; format: in vivo, mouse; settings: DSS mice treated with naltrexone
Text: as §1, §2

IL-5 mRNA = assay: Distal colon RNA of DSS mice, real-time RT-PCR; format: in vivo, mouse; settings: DSS+NTX
Text: as §1, §2

IL-12 mRNA = assay: Distal colon RNA of DSS mice, real-time RT-PCR; format: in vivo, mouse; settings: DSS mice treated with naltrexone
Text: as §1, §2

beta-actin mRNA = assay: Distal colon RNA of DSS mice, real-time RT-PCR; format: in vivo, mouse; settings: DSS+NTX
Text: as §1, §2

[1] = test system: DSS-induced colitis in mice; assay: DSS-induced colitis in mice: weight, food and water intake, modified DAI, colon length; format: in vivo, mouse
Text: Six to eight-week-old male C57 black/6J mice (Charles River Laboratories, Inc., Wilmington, Mass.) were randomly allocated into one of two groups of 24 mice each. Food and water were provided ad libitum. The first group (Normal) received normal drinking water and the second group (DSS) received water containing 2% dextran sulfate sodium having a molecular weight of 40,000 (TdB Consultancy AB, Uppsala, Sweden) for six days followed by normal water for three additional days and necropsy on day 9 (FIG. 5A). Each mouse was housed in an individual cage for accurate measurement of food and water intake. Animal weight, water intake, and food consumption were measured daily. Bedding was changed and fresh stool pellets were collected daily and analyzed for occult blood. The colitis disease activity index (DAI) was calculated for each mouse according to the system established by Murthy and colleagues. See, Murthy, et al., “Treatment of dextran sulfate sodium-induced murine colitis by intracolonic cyclosporin,” Dig. Dis. Sci. 38, 1722-34 (1993). Overt changes in stool consistency were rarely discerned so a modified DAI was calculated based on percent weight loss and stool hemoccult or presence of gross bleeding.
(§3) Mice in each group (Normal or DSS) were randomly subdivided into three treatment groups of eight mice each. After 72 hours, mice were treated once daily for six consecutive days with a subcutaneous injection (0.1 mL) of one of the following: saline (control), 6.3 μg/kg naltrexone (“NTX”), or 350 μg/kg NTX (Sigma Chemicals, St. Louis, Mo.). On day 9, all animals were necropsied and their colons resected.
(§4) At necropsy, the entire colon was excised, measured in length, and bisected into proximal and distal portions. The proximal and distal colons were additionally divided for RNA extraction and histology. Each histology specimen was fixed in 10% neutral buffered formalin, paraffin embedded and sectioned for hematoxylin and eosin (“H&E”) staining. Specimens were examined microscopically and scored based upon the criteria established by Williams et al. by an investigator blinded to the treatment groups. Williams, et al., “Enhanced survival and mucosal repair after dextran sodium sulfate-induced colitis in transgenic mice that overexpress growth hormone,” Gastroenterology 120, 925-37 (2001). Briefly, a representative longitudinal section from each mouse was scored at six random fields for inflammation severity, extent of inflammation (mucosa, submucosa, transmural) and crypt damage. Each of these scores was weighted to reflect the percent involvement of the overall section and the weighted scores from each of the six fields were averaged to achieve an overall inflammation score for each mouse.
(§5) Results were calculated as mean±SEM. Statistical comparisons were performed between NTX treatment sub-groups and their corresponding saline control, as well as between the Normal and DSS groups, comparing corresponding treatments. Parametric analyses were performed (Minitab 13, State College, Pa.) using a modified Bonferroni method to correct for multiple comparisons to controls.

[2] = higher doses, i.e. 50 mg; cited from earlier work
[3] = test system: mucin (Muc2), trefoil factor (TFF3), TGF-beta binding protein mRNA; assay: Distal colon RNA of DSS mice, microarray and quantitative RT-PCR; format: in vivo, mouse
Text: as §1
RNA (18S and 28S bands) was visualized using the Agilent 2100 Bioanalyzer (Agilent Technologies, Santa Clara, Calif.) and concentrations were adjusted. […] The concentration and quality of resulting cDNA was quantified and analyzed using the Agilent 2100 Bioanalyzer or spectroscopically with the NanoDrop ND-1000 (NanoDrop Technologies, Wilmington, Del.). […] PCR amplification and analysis were performed with the Applied Biosystems Sequence Detection System 7300 using the Relative Quantification (ddCt). […]

[4] = test system: DSS-induced colitis in mice; assay: DSS-induced colitis in mice: histological inflammation score of distal colon (H&E); format: in vivo, mouse
Experimental: as §3, §4, §5

[5] = DSS mice treated with naltrexone

O=C1CC[C@@]2(O)[C@H]3Cc4ccc(O)c5c4[C@@]2(CCN3CC2CC2)[C@H]1O5 [naltrexone]
STAT3 mRNA level versus colitis-free Normal controls (STAT3 mRNA; [5]): statistically indistinguishable from colitis-free, Normal controls | STAT3 mRNA level, decrease after naltrexone treatment (STAT3 mRNA; DSS mice, DSS+saline increased 2.20-fold): greater than 50% | DSS-induced up-regulation of STAT3 expression (in words) (STAT3 mRNA; DSS-treated mice): reversed | STAT4 mRNA level versus Normal mice (STAT4 mRNA; [5]): still slightly higher than in the Normal mice | STAT4 mRNA level, decrease after naltrexone treatment (STAT4 mRNA; DSS mice, DSS+saline increased 8.03-fold): greater than 50% | DSS-induced up-regulation of STAT4 expression (in words) (STAT4 mRNA; DSS-treated mice): reversed | IL-6 mRNA level versus colitis-free mice (IL-6 mRNA): decreased to levels near or equal to that in mice without colitis; also recorded: not completely restored to those seen in the colitis-free animals | IL-6 mRNA level versus DSS+saline (IL-6 mRNA; DSS+saline increased 73-fold): greatly reduced | Expression of IL-5 (IL-5 mRNA): not significantly changed | IL-12 mRNA level versus colitis-free mice (IL-12 mRNA): decreased to levels near or equal to that in mice without colitis; also recorded: restored mRNA expression to that seen in the colitis-free, Normal mice | IL-12 mRNA level versus DSS+saline (IL-12 mRNA; DSS+saline increased three-fold): greatly reduced | Expression of beta-actin (beta-actin mRNA): not significantly changed | Colon length ([1]; DSS mice treated with naltrexone, still shorter than in untreated animals): more normal colon lengths | DAI scores / disease symptoms compared to DSS+saline (in words) ([1]; DSS mice, 350 μg/kg): lower DAI scores; also recorded: decreased | Weight loss compared to DSS mice treated with saline ([1]; DSS mice, 350 μg/kg): less weight loss; also recorded: decreased | Weight loss compared to DSS+saline ([1]; DSS mice, naltrexone s.c. once daily from 72 hours): tended to be less | DAI scores of DSS mice (in words) ([1]; DSS mice, naltrexone treatment): A reduction in these DAI scores was evident | Weight loss compared to DSS+saline, statistical significance ([1]; DSS+6.3 μg/kg NTX, p=0.02): only reached statistical significance on day 6 | Modified DAI scores ([1]; Normal mice (no DSS), NTX-treated): no evidence of colitis | DAI scores lower than DSS+saline mice ([1]; day 6, DSS+350 μg/kg NTX, p=0.015): 55% | Weight at necropsy among the three DSS sub-groups ([1]; day 9, off DSS for three days): no significant difference in weight | Food consumption ([1]; naltrexone treatment alone (Normal mice, no DSS)): no effect on food consumption | Liver transaminases [2]: elevate liver transaminases | Levels of Muc2, TFF3 and TGF-beta binding protein mRNAs, microarray ([3]; DSS animals, either 6.3 or 350 μg/kg): restored the levels of these mRNAs in DSS animals to varying extents | Levels of Muc2, TFF3 and TGF-beta binding protein mRNAs, quantitative RT-PCR, versus Normal animals ([3]; DSS+NTX animals): not significantly different from Normal animals | Inflammation by histology compared to DSS+saline (in words) ([4]; DSS mice, 350 μg/kg): less inflammation; also recorded: improved | Crypt architecture and invading leukocytes compared to DSS+saline ([4]; DSS+350 μg/kg NTX): improved crypt architecture and fewer invading leukocytes | Inflammation scores of distal colon compared to DSS+saline ([4]; DSS+NTX 6.3 and 350 μg/kg, trend did not reach statistical significance): dose-dependent decrease in inflammation and damage | Colonic inflammation, histology, Normal+saline versus Normal+NTX ([4]; Normal mice (no DSS)): No differences in colonic inflammation | Mucosal integrity of the colon ([4]; naltrexone alone (no DSS)): did not alter the mucosal integrity of the colon
